Measurements as given in patent publication US8273759B2, “Fungicide heterocyclyl-pyrimidinyl-amino derivatives” (Bayer Cropscience AG, priority 2007, dated 2012).

System: Pyricularia grisea
Assay: not given
Format: in vivo
Settings: 500 ppm; rice plants sprayed 24 hours before contamination; grading 6 days after contamination

With CCC(COC)Nc1cc(-c2ccnc(Nc3ccnc(Cl)c3)n2)ccn1 (stereo not shown) [Compound 9, N-(2-chloropyridin-4-yl)-4-(2-{[1-(methoxymethyl)propyl]amino}pyridin-4-yl)pyrimidin-2-amine] the “protection (good, at least 70%, or total), % of efficacy” value was “at least 70%”.

System: not listed separately
Assay: log P by reversed-phase HPLC (EEC Directive 79/831 Annex V.A8)
Format: physicochemical
Settings: reversed-phase C 18, 40° C., 0.1% aqueous formic acid and acetonitrile gradient
Description: Temperature: 40° C.; Mobile phases: 0.1% aqueous formic acid and acetonitrile; linear gradient from 10% acetonitrile to 90% acetonitrile.

Compared with COc1ccc(Nc2nccc(-c3ccnc(N(C)C)c3)n2)cn1 [Compound 1], CCC(C)Nc1cc(-c2ccnc(Nc3ccc(OC)nc3)n2)ccn1 (stereo not shown) [Compound 39] is higher in “log PHCOOH” value: 1.24 for the first, 1.48 for the second.

CCC(CO)Nc1cc(-c2ccnc(Nc3ccc(OC)nc3)n2)ccn1 (stereo not shown) [Compound 2] and COCC(C)Nc1cc(-c2ccnc(Nc3ccc(OC)nc3)n2)ccn1 (stereo not shown) [Compound 38] are within 0.2 log units of each other in “log PHCOOH” value: 1.35 for the first, 1.29 for the second.

c1cc(Nc2nccc(-c3ccnc(NC4CCC4)c3)n2)nc(NC2CCC2)c1 [Compound 3] and c1cc(Nc2nccc(-c3ccnc(NC4CCCC4)c3)n2)nc(NC2CCCC2)c1 [Compound 31] are within 0.2 log units of each other in “log PHCOOH” value: 1.12 for the first, 1.23 for the second.

c1cc(Nc2nccc(-c3ccnc(NC4CCCCC4)c3)n2)nc(NC2CCCCC2)c1 [Compound 4] and c1cc(Nc2nccc(-c3ccnc(NC4CCCCC4)c3)n2)cc(NC2CCCCC2)n1 [Compound 15] are within 0.2 log units of each other in “log PHCOOH” value: 1.70 for the first, 1.52 for the second.

c1cc(Nc2nccc(-c3ccnc(NCC4CC4)c3)n2)cc(NCC2CC2)n1 [Compound 5] and c1cc(NCC2CC2)nc(Nc2nccc(-c3ccnc(NCC4CC4)c3)n2)c1 [Compound 16] are within 0.2 log units of each other in “log PHCOOH” value: 0.97 for the first, 0.96 for the second.

First: COCCCNc1cc(-c2ccnc(Nc3cccc(NCCCOC)n3)n2)ccn1 [Compound 6]
Second: CCC(COC)Nc1cc(-c2ccnc(Nc3cccc(Cl)n3)n2)ccn1 (stereo not shown) [Compound 29]
The “log PHCOOH” value of the first is lower: 0.83 for the first, 1.85 for the second.

Compared with c1cc(NCC2CCCO2)nc(Nc2nccc(-c3ccnc(NCC4CCCO4)c3)n2)c1 (stereo not shown) [Compound 7], Clc1cccc(Nc2nccc(-c3ccnc(NCC4CCCO4)c3)n2)n1 (stereo not shown) [Compound 27] is higher in “log PHCOOH” value: 0.86 for the first, 1.64 for the second.

Clc1cc(Nc2nccc(-c3ccnc(NC4CCCCC4)c3)n2)ccn1 [Compound 8] and Clc1cc(Nc2nccc(-c3ccnc(NC4CCCC4)c3)n2)ccn1 [Compound 14] are within 0.2 log units of each other in “log PHCOOH” value: 1.64 for the first, 1.58 for the second.

CC(C)C(C)Nc1cc(-c2ccnc(Nc3ccnc(Cl)c3)n2)ccn1 (stereo not shown) [Compound 10] and CCCC(C)Nc1cc(-c2ccnc(Nc3ccnc(Cl)c3)n2)ccn1 (stereo not shown) [Compound 12] are within 0.2 log units of each other in “log PHCOOH” value: 1.66 for the first, 1.72 for the second.

First: Clc1cc(Nc2nccc(-c3ccnc(NC4CCC4)c3)n2)ccn1 [Compound 11]
Second: c1cc(Nc2nccc(-c3ccnc(NC4CCC4)c3)n2)cc(NC2CCC2)n1 [Compound 19]
The “log PHCOOH” value of the first is higher: 1.45 for the first, 1.05 for the second.

Compared with CCC(CC)Nc1cc(-c2ccnc(Nc3ccnc(Cl)c3)n2)ccn1 [Compound 13], COCC(C)Nc1cc(-c2ccnc(Nc3ccnc(Cl)c3)n2)ccn1 (stereo not shown) [Compound 35] is lower in “log PHCOOH” value: 1.64 for the first, 1.34 for the second.

CCCCCNc1cc(Nc2nccc(-c3ccnc(NCCCCC)c3)n2)ccn1 [Compound 17] and CCCC(C)Nc1cc(Nc2nccc(-c3ccnc(NC(C)CCC)c3)n2)ccn1 (stereo not shown) [Compound 20] are within 0.2 log units of each other in “log PHCOOH” value: 1.57 for the first, 1.43 for the second.

CC(C)C(C)Nc1cc(Nc2nccc(-c3ccnc(NC(C)C(C)C)c3)n2)ccn1 (stereo not shown) [Compound 18] and CC(C)C(C)Nc1cc(-c2ccnc(Nc3cccc(NC(C)C(C)C)n3)n2)ccn1 (stereo not shown) [Compound 33] are within 0.2 log units of each other in “log PHCOOH” value: 1.34 for the first, 1.43 for the second.

Compared with CCC(CC)Nc1cc(Nc2nccc(-c3ccnc(NC(CC)CC)c3)n2)ccn1 [Compound 21], CCC(COC)Nc1cc(Nc2nccc(-c3ccnc(NC(CC)COC)c3)n2)ccn1 (stereo not shown) [Compound 34] is lower in “log PHCOOH” value: 1.33 for the first, 1.10 for the second.

c1cc(Nc2nccc(-c3ccnc(NC4CCCC4)c3)n2)cc(NC2CCCC2)n1 [Compound 22] and COc1ccc(Nc2nccc(-c3ccnc(NC4COC4)c3)n2)cn1 [Compound 36] are within 0.2 log units of each other in “log PHCOOH” value: 1.22 for the first, 1.10 for the second.

CCC(C)Nc1cc(Nc2nccc(-c3ccnc(NC(C)CC)c3)n2)ccn1 (stereo not shown) [Compound 23] and CCC(C)Nc1cc(-c2ccnc(Nc3cccc(NC(C)CC)n3)n2)ccn1 (stereo not shown) [Compound 32] are within 0.2 log units of each other in “log PHCOOH” value: 1.10 for the first, 1.23 for the second.

CCC(CC)Nc1cc(-c2ccnc(Nc3cccc(Cl)n3)n2)ccn1 [Compound 24] and CCC(C)Nc1cc(-c2ccnc(Nc3cccc(Cl)n3)n2)ccn1 (stereo not shown) [Compound 25] are within 0.2 log units of each other in “log PHCOOH” value: 2.09 for the first, 2.00 for the second.

First: CC(C)C(C)Nc1cc(-c2ccnc(Nc3cccc(Cl)n3)n2)ccn1 (stereo not shown) [Compound 26]
Second: CC(CN(C)C)Nc1cc(-c2ccnc(Nc3cccc(Cl)n3)n2)ccn1 (stereo not shown) [Compound 28]
The “log PHCOOH” value of the first is higher: 2.15 for the first, 1.42 for the second.

CCC(CC)Nc1cc(-c2ccnc(Nc3cccc(NC(CC)CC)n3)n2)ccn1 [Compound 30] and COc1ccc(Nc2nccc(-c3ccnc(NCC(C)C)c3)n2)cn1 [Compound 46] are within 0.2 log units of each other in “log PHCOOH” value: 1.47 for the first, 1.42 for the second.

Same assay, conditions: reversed-phase C18 HPLC column, reversed-phase C 18, 40° C., 0.1% aqueous formic acid and acetonitrile gradient, read-out: log PHCOOH

CCC(COC)Nc1cc(-c2ccnc(Nc3ccnc(Cl)c3)n2)ccn1 (stereo not shown) [Compound 9, N-(2-chloropyridin-4-yl)-4-(2-{[1-(methoxymethyl)propyl]amino}pyridin-4-yl)pyrimidin-2-amine] gave a chromatographic logP of 1.37.
